Assay [1] addresses T1, C-X-C chemokine receptor type 3 (Homo sapiens) (UniProt P49682).
T1 sequence (whole entry): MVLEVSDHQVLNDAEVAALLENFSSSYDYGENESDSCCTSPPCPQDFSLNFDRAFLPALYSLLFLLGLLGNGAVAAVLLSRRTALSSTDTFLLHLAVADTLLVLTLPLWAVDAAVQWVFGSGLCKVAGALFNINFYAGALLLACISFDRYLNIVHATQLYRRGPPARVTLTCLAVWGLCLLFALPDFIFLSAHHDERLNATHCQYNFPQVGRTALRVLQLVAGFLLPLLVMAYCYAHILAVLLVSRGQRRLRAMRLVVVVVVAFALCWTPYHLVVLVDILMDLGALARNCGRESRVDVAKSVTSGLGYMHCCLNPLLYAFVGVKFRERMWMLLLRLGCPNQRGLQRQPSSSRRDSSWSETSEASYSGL
Kind of assay: Antagonist activity at human CXCR3 expressed in HEK293T cells co-expressing Galphaqi5 assessed as inhibition of CXCL10-induced [3H]-inositolphosphates levels. The assay is classed as functional, cell-based. The following applies: HEK-293T.

Assay [2] has as its target T2, C-X-C chemokine receptor type 3 (Homo sapiens, UniProt P49682).
T2 sequence (P49682 whole entry): T1 sequence (whole entry)
Description: Displacement of [125I]-CXCL11 from human CXCR3 expressed in HEK293 cells. In kind it is cell-based.

The target of assay [3] is T2, C-X-C chemokine receptor type 3. Description: Displacement of [125I]-CXCL10 from human CXCR3 expressed in HEK293 cells. In kind it is cell-based.

For the compound `CC1(C)[C@H]2CC=C(C[N+](C)(C)Cc3ccc(I)cc3)[C@@H]1C2`, the pKb in assay [1] turned out to be 6.6. The Ki in assay [2] was 398 nM; in assay [3], 251 nM.

As for `CC1(C)[C@H]2CC=C(C[N+](C)(C)Cc3ccc(-c4cccc(Cl)c4)cc3)[C@@H]1C2`, in assay [1], the pKb stood at 6.3. Also, the Ki in assay [2] was 316 nM; in assay [3], 126 nM.

For `CC1(C)[C@H]2CC=C(C[N+](C)(C)Cc3ccc(-c4ccsc4)cc3)[C@@H]1C2`, the pKb in assay [1] was determined as 6.4. The Ki was 316 nM in assay [2] and 200 nM in assay [3].

Turning to `CC1(C)[C@H]2CC=C(C[N+](C)(C)Cc3ccc(Cl)cc3)[C@@H]1C2`, the pKb in assay [1] turned out to be 6.3. Besides, the inhibition constant Ki is 501 nM in assay [2] and 200 nM in assay [3].
